Reference: ChEMBL document CHEMBL1641593, “Benzothieno[3,2-b]quinolinium and 3-(phenylthio)quinolinium compounds: Synthesis and evaluation against opportunistic fungal pathogens” (Bioorg Med Chem, 2011)
Values after ≈ are worked out from the molar mass of the structure shown. Active and inactive are the calls of the source. The rule behind the calls is not given here.

What was measured:
Cryptococcus neoformans [1] = experiment: Antifungal activity against Cryptococcus neoformans ATCC 90113 at 20 ug/ml by CLSI method; type: functional, organism-based
Candida albicans [2] = experiment: Antifungal activity against Candida albicans ATCC 90028 at 20 ug/ml by CLSI method; type: functional, organism-based
Aspergillus fumigatus = experiment: Antifungal activity against Aspergillus fumigatus ATCC 90906 by CLSI method; type: functional, organism-based
Candida albicans [3] = experiment: Antifungal activity against Candida albicans ATCC 90028 by CLSI method; type: functional, organism-based; settings: Candida albicans, ATCC 90028
Vero = experiment: Cytotoxicity against african green monkey Vero cells after 48 hrs by neutral red assay; type: cell-based; settings: Chlorocebus sabaeus
Cryptococcus neoformans [4] = experiment: Antifungal activity against Cryptococcus neoformans ATCC 90113 by CLSI method; type: functional, organism-based
Mus musculus [5] = experiment: Toxicity in Cryptococcus neoformans ATCC 52657 infected mouse assessed as pathological lesions at 10 mg/kg, ip qd for 5 days; type: organism-based; design: dose 10 mg/kg, route intraperitoneal; settings: in vivo, 120 h
Mus musculus [6] = experiment: Toxicity in Cryptococcus neoformans ATCC 52657 infected mouse assessed as change in gross pathology of kidney at 10 to 20 mg/kg, ip qd for 5 days; type: organism-based; design: dose 10-20 mg/kg, route intraperitoneal; settings: in vivo, 120 h
Mus musculus [7] = experiment: Toxicity in Cryptococcus neoformans ATCC 52657 infected mouse assessed as enlargement of liver with fusion of hepatic lobes at 20 mg/kg, ip qd for 5 days; type: organism-based; design: dose 20 mg/kg, route intraperitoneal; settings: in vivo, 120 h
Mus musculus [8] = experiment: Toxicity in Cryptococcus neoformans ATCC 52657 infected mouse assessed as signs of discomfort at 10 to 20 mg/kg, ip qd for 5 days after 2 hrs last post dose; type: organism-based; design: dose 10-20 mg/kg, route intraperitoneal; settings: in vivo
Mus musculus [9] = experiment: Toxicity in Cryptococcus neoformans ATCC 52657 infected mouse assessed as distension of jejunum at 10 mg/kg, ip qd for 5 days; type: organism-based; design: dose 10 mg/kg, route intraperitoneal; settings: in vivo, 120 h
Mus musculus [10] = experiment: Toxicity in Cryptococcus neoformans ATCC 52657 infected mouse assessed as distension of jejunum at 20 mg/kg, ip qd for 5 days; type: organism-based; design: dose 20 mg/kg, route intraperitoneal; settings: in vivo, 120 h
Mus musculus [11] = experiment: Toxicity in Cryptococcus neoformans ATCC 52657 infected mouse assessed as change in body weight at 20 mg/kg, ip qd for 5 days; type: organism-based; design: dose 20 mg/kg, route intraperitoneal; settings: in vivo, 120 h
Mus musculus [12] = experiment: Toxicity in Cryptococcus neoformans ATCC 52657 infected mouse assessed as distension of cecum at 10 mg/kg, ip qd for 5 days; type: organism-based, Caecum; design: dose 10 mg/kg, route intraperitoneal; settings: in vivo, 120 h
Mus musculus [13] = experiment: Toxicity in Cryptococcus neoformans ATCC 52657 infected mouse assessed as distension of duodenum at 10 mg/kg, ip qd for 5 days; type: organism-based; design: dose 10 mg/kg; settings: in vivo, other, 120 h
Mus musculus [14] = experiment: Toxicity in Cryptococcus neoformans ATCC 52657 infected mouse assessed as change in body weight at 10 mg/kg, ip qd for 5 days; type: organism-based; design: dose 10 mg/kg, route intraperitoneal; settings: in vivo, 120 h
Mus musculus [15] = experiment: Toxicity in Cryptococcus neoformans ATCC 52657 infected mouse assessed as change in gross pathology of spleen at 10 to 20 mg/kg, ip qd for 5 days; type: organism-based; design: dose 10-20 mg/kg, route intraperitoneal; settings: in vivo, 120 h
Mus musculus [16] = experiment: Toxicity in Cryptococcus neoformans ATCC 52657 infected mouse assessed as decrease in mobility at 10 to 20 mg/kg, ip qd for 5 days; type: organism-based; design: dose 10-20 mg/kg, route intraperitoneal; settings: in vivo, 120 h
Mus musculus [17] = experiment: Toxicity in Cryptococcus neoformans ATCC 52657 infected mouse assessed as distension of cecum at 20 mg/kg, ip qd for 5 days; type: organism-based, Caecum; design: dose 20 mg/kg, route intraperitoneal; settings: in vivo, 120 h
Mus musculus [18] = experiment: Toxicity in Cryptococcus neoformans ATCC 52657 infected mouse assessed as distension of duodenum at 20 mg/kg, ip qd for 5 days; type: organism-based; design: dose 20 mg/kg; settings: in vivo, other, 120 h
Mus musculus [19] = experiment: Toxicity in Cryptococcus neoformans ATCC 52657 infected mouse assessed as decrease in mobility at 10 to 20 mg/kg, ip qd for 5 days after 2 hrs last post dose; type: organism-based; design: dose 10-20 mg/kg, route intraperitoneal; settings: in vivo
Mus musculus [20] = experiment: Toxicity in Cryptococcus neoformans ATCC 52657 infected mouse assessed as signs of discomfort at 10 to 20 mg/kg, ip qd for 5 days; type: organism-based; design: dose 10-20 mg/kg, route intraperitoneal; settings: in vivo, 120 h
Cryptococcus neoformans [21] = experiment: Antifungal activity against Cryptococcus neoformans ATCC 52657-infected mouse assessed as reduction of CFU per gram of brain at 1 mg/kg, ip qd for 5 days relative to control; type: functional; design: scale not given: the % may be the effect or the level left; settings: route intraperitoneal
Mus musculus [22] = experiment: Toxicity in Candida albicans B311 ATCC 32354-infected mouse assessed as change in body weight at 1 to 10 mg/kg, ip qd for 3 days; type: organism-based; design: dose 1-10 mg/kg, route intraperitoneal; settings: in vivo, 72 h
[23] = Toxicity in Candida albicans B311 ATCC 32354-infected mouse assessed as white deposits of unknown origin in peritoneal cavity at 20 mg/kg, ip qd for 3 days; type: organism-based; design: dose 20 mg/kg, route intraperitoneal; settings: in vivo, 72 h
Cryptococcus neoformans [24] = experiment: Antifungal activity against Cryptococcus neoformans ATCC 52657-infected mouse assessed as reduction of CFU per gram of brain at 1.2 mg/kg, ip qd for 5 days relative to control; type: functional; design: scale not given: the % may be the effect or the level left; settings: route intraperitoneal
Mus musculus [25] = experiment: Toxicity in Candida albicans B311 ATCC 32354-infected mouse assessed as gross pathological lesions at 1 to 10 mg/kg, ip qd for 3 days; type: organism-based; design: dose 1-10 mg/kg, route intraperitoneal; settings: in vivo, 72 h
Candida albicans [26] = experiment: Antifungal activity against Candida albicans B311 ATCC 32354-infected mouse assessed as reduction of CFU per gram of kidney at 1.2 mg/kg, ip qd for 3 days relative to control; type: functional; design: scale not given: the % may be the effect or the level left; settings: route intraperitoneal
Cryptococcus neoformans [27] = experiment: Antifungal activity against Cryptococcus neoformans ATCC 52657-infected mouse assessed as reduction of CFU per gram of brain at 5 mg/kg, ip qd for 5 days relative to control; type: functional; design: scale not given: the % may be the effect or the level left; settings: route intraperitoneal
[28] = Toxicity in Candida albicans B311 ATCC 32354-infected ip dosed mouse administered qd for 3 days; type: organism-based; settings: in vivo
Candida albicans [29] = experiment: Antifungal activity against Candida albicans B311 ATCC 32354-infected mouse assessed as reduction of CFU per gram of kidney at 5 mg/kg, ip qd for 3 days relative to control; type: functional; design: scale not given: the % may be the effect or the level left; settings: route intraperitoneal
Cryptococcus neoformans [30] = experiment: Antifungal activity against Cryptococcus neoformans ATCC 52657-infected mouse assessed as reduction of CFU per gram of brain at 10 mg/kg, ip qd for 5 days relative to control; type: functional; design: scale not given: the % may be the effect or the level left; settings: route intraperitoneal
Candida albicans [31] = experiment: Antifungal activity against Candida albicans B311 ATCC 32354-infected mouse assessed as reduction of CFU per gram of kidney at 1 mg/kg, ip qd for 3 days relative to control; type: functional; design: scale not given: the % may be the effect or the level left; settings: route intraperitoneal
Candida albicans [32] = experiment: Antifungal activity against Candida albicans B311 ATCC 32354-infected mouse assessed as reduction of CFU per gram of kidney at 10 mg/kg, ip qd for 3 days relative to control; type: functional; design: scale not given: the % may be the effect or the level left; settings: route intraperitoneal

SMILES | IC50 (Aspergillus fumigatus) [µg/mL] | MIC (Aspergillus fumigatus) [µg/mL] | IC50 (Candida albicans [3]) [µg/mL] | MIC (Candida albicans [3]) [µg/mL] | IC50 (Cryptococcus neoformans [4]) [µg/mL] | MIC (Cryptococcus neoformans [4]) [µg/mL] | IC50 (Vero) [µg/mL] | other results
C[C@@H]1[C@H](O)[C@@H](C)/C=C/C=C/C=C/C=C/C=C/C=C/C=C/[C@H](O[C@@H]2O[C@H](C)[C@@H](O)[C@H](N)[C@@H]2O)C[C@@H]2O[C@](O)(C[C@@H](O)C[C@@H](O)[C@H](O)CC[C@@H](O)C[C@@H](O)CC(=O)O[C@H]1C)C[C@H](O)[C@H]2C(=O)O [AMPHOTERICIN B] | 1.5 (≈ 1.62 µM) | 2.5 (≈ 2.71 µM) |  | 0.6 (≈ 0.649 µM) | 1.5 (≈ 1.62 µM) | 2.5 (≈ 2.71 µM) |  | 
COc1cccc2c1cc1sc3ccccc3c1[n+]2C.O=S(=O)([O-])C(F)(F)F | 0.8 | 1.3 | 15 | > 20 |  |  | > 4.7 | 
C[n+]1c2c(Cl)cccc2cc2sc3ccccc3c21.O=S(=O)([O-])C(F)(F)F | 6 | 10 |  |  | 4 | 10 | > 10 | Activity (Mus musculus [5]): Non-toxic; Activity (Mus musculus [6]): Non-toxic; Activity (Candida albicans [2]): inactive; Activity (Mus musculus [7]): Toxic; Activity (Mus musculus [8]): Non-toxic; Activity (Mus musculus [9]): Toxic; Activity (Mus musculus [10]): Toxic; Activity (Mus musculus [11]): Toxic; Activity (Mus musculus [12]): Toxic; Activity (Mus musculus [13]): Toxic; Activity (Mus musculus [14]): Non-toxic; Activity (Mus musculus [15]): Non-toxic; Activity (Mus musculus [16]): Toxic; Activity (Mus musculus [17]): Toxic; Activity (Mus musculus [18]): Toxic; Activity (Mus musculus [19]): Non-toxic; Activity (Mus musculus [20]): Toxic
COc1cccc2c1cc1sc3ccccc3c1[n+]2C |  |  |  |  |  |  |  | Activity (Cryptococcus neoformans [1]): inactive
COc1ccc2cc3sc4ccccc4c3[n+](C)c2c1.O=S(=O)([O-])C(F)(F)F | 0.4 | 0.6 | 1.5 | 10 | 6 | > 20 | > 10 | Activity (Cryptococcus neoformans [21]): 50%; Activity (Mus musculus [22]): Non-toxic; Activity [23]: Toxic; Activity (Cryptococcus neoformans [24]): 24%; Activity (Mus musculus [25]): Non-toxic; Activity (Candida albicans [26]): 99%; Activity (Cryptococcus neoformans [27]): 26%; MTD at 72 h [28]: 10 mg/kg; Activity (Candida albicans [29]): 26%; Activity (Cryptococcus neoformans [30]): 10%; Activity (Candida albicans [31]): 34%; Activity (Candida albicans [32]): 86%

Continued, in another order:

IC50 (Aspergillus fumigatus) [µg/mL] | MIC (Aspergillus fumigatus) [µg/mL] | IC50 (Candida albicans [3]) [µg/mL] | MIC (Candida albicans [3]) [µg/mL] | IC50 (Cryptococcus neoformans [4]) [µg/mL] | MIC (Cryptococcus neoformans [4]) [µg/mL] | SMILES | IC50 (Vero) [µg/mL] | other results
8 | 20 |  |  |  |  | COc1ccc2sc3cc4ccccc4[n+](C)c3c2c1.[I-] |  | Activity (Cryptococcus neoformans [1]): inactive; Activity (Candida albicans [2]): inactive
9.5 | > 20 | 2.5 | > 20 |  |  | C[n+]1c2ccccc2cc2sc3cc(Cl)ccc3c21.[I-] | > 10 | Activity (Cryptococcus neoformans [1]): inactive
6.5 | 10 | > 20 | > 20 | 15 | > 20 | C[n+]1c2ccccc2cc2sc3c(Cl)cccc3c21.[I-] |  | 
1.5 | 2.5 | 15 | > 20 |  |  | COc1cccc2c1cc1sc3ccccc3c1[n+]2C.[I-] |  | 
 | 2.5 | 2 | > 20 | 15 | > 20 | C[n+]1c2ccc(Cl)cc2cc2sc3ccccc3c21.[I-] | > 23.8 | 
3 | 5 | 7 | > 20 | 10 | > 20 | COc1cccc2c1sc1cc3ccccc3[n+](C)c12.[I-] | > 10 | 
 | > 2.5 | 6 | 20 | 15 | 20 | C[n+]1cc(Sc2ccccc2)cc2ccccc21.[I-] |  | MFC (Candida albicans [3]; read-out: MFC): > 20 µg/mL; MFC (Aspergillus fumigatus): 20 µg/mL; MFC (Cryptococcus neoformans [4]): > 20 µg/mL
